Measurements taken from paper PMC9144902, “Metal(II) Complexes of the Fluoroquinolone Fleroxacin: Synthesis, Characterization and Biological Profile” (Pharmaceutics, 2022).

What was measured:
[1] = test system: CT DNA; test: Study of the DNA-interaction by cyclic voltammetry; assay type: binding, calf; settings: for Epa(f), anodic potential / Epc(f), cathodic potential / Epa(b), anodic potential / Epc(b), cathodic potential: M(II)/M(I), 1:2 DMSO/buffer; for Epa(f), anodic potential / Epc(f), cathodic potential: absence of CT DNA; for Epa(b), anodic potential / Epc(b), cathodic potential: presence of CT DNA; for Kr/Kox, ratio of equilibrium DNA-binding constants (reduced/oxidized form): eq. S6
Protocol: Cyclic voltammetry was used to study the interaction of the complexes with CT DNA. An intercalative interaction will induce a positive shift for the electrochemical potential(s) of metal oxidation/reduction, whereas, in the case of electrostatic interaction, a negative shift in the potential(s) may occur. The cyclic voltammograms of the complexes in a 1:2 DMSO:buffer solution (0.33 mM) were recorded in the absence and presence of the CT DNA solution (Figure S13). The predominant electrochemical feature for all complexes is a positive shift in the potential in the presence of CT DNA (ΔEpc/a = (–30)–(+127) mV). Consequently, the intercalative nature of the interaction of the complexes with DNA can be inferred from the presented data.
In order to evaluate further the redox behavior of the complexes, the corresponding equilibrium constants were calculated by determining the ratio Kr/Kox in accordance to Equation (S6), where Kox and Kr are the DNA-binding constants for the oxidized and reduced form, respectively, of the metal ions. For all complexes, the Kr/Kox ratio is close to or above 1 (Table 7), showing the selective binding of DNA to the […] form of the complexes. […]
S3.3 Study of the DNA –interaction by cyclic vol ta mmetry
Cyclic voltammetr y can be also used in order to calculate the corresponding equilibrium constant for the redox process. The ratio of the DNA–binding constants for the reduced (K r) and oxidized forms (Kox) of t he complex es (Kr/Kox) w as calculat ed according t o eq. S6:
Δ = = 0.059 × lo gEE E K oxoo o (eq. S6) […]
where Eo and Eo are the formal potentials of M(II)/M(I) redox couple in the fully bound and […]
free complexes, respectivel y. Kox and Kr are the binding constants for the binding of the oxidized and reduced species to DNA, respectivel y [S8] . […]

[2] = molecular target: T1, human serum albumin (HSA) (Homo sapiens, UniProt P02768); test: Albumin binding by tryptophan fluorescence emission quenching; settings: for K(HSA), HSA-binding constant / kq(HSA), HSA-quenching constant: HSA 3 μM; for K(HSA), HSA-binding constant: buffer pH 7.0, Scatchard equation; for kq(HSA), HSA-quenching constant: buffer pH 7.0, λexc 295 nm, Stern–Volmer, τ0 = 10^–8 s; for HSA fluorescence, % of the initial fluorescence intensity (I/Io): λem,max = 351 nm, final value of titration (Figure S10)
T1 construct: purchased
T1 sequence (P02768 25-609): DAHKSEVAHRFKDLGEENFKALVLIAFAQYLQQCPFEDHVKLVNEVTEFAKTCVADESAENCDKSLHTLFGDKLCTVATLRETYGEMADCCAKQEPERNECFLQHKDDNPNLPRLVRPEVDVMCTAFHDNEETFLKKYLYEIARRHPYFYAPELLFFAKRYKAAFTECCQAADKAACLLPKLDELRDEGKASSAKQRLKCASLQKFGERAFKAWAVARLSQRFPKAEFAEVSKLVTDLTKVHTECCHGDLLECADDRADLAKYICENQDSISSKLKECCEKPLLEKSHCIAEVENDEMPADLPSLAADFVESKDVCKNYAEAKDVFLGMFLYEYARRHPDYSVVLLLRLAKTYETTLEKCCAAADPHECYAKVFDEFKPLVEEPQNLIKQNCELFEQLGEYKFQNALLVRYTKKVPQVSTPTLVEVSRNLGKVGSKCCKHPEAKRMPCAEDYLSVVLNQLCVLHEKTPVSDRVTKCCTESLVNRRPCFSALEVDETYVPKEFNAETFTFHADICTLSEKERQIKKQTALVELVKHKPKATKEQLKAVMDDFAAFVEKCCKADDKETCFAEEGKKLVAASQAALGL
Method in brief: (§1)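 Compound binding to serum albumin monitored by quenching of albumin tryptophan fluorescence emission. Quenching constants (kq) derived from Stern–Volmer equation; binding constants (K) from Scatchard equation.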

[3] = molecular target: T2, bovine serum albumin (BSA) (Bos taurus, UniProt P02769); test: as above; settings: for K(BSA), BSA-binding constant / kq(BSA), BSA-quenching constant: BSA 3 μM; for K(BSA), BSA-binding constant: buffer pH 7.0, Scatchard equation; for kq(BSA), BSA-quenching constant: buffer pH 7.0, λexc 295 nm, Stern–Volmer, τ0 = 10^–8 s; for BSA fluorescence, % of the initial fluorescence intensity (I/Io): λem,max = 342 nm, final value of titration (Figure S11)
T2 construct: purchased
T2 sequence (P02769 25-607): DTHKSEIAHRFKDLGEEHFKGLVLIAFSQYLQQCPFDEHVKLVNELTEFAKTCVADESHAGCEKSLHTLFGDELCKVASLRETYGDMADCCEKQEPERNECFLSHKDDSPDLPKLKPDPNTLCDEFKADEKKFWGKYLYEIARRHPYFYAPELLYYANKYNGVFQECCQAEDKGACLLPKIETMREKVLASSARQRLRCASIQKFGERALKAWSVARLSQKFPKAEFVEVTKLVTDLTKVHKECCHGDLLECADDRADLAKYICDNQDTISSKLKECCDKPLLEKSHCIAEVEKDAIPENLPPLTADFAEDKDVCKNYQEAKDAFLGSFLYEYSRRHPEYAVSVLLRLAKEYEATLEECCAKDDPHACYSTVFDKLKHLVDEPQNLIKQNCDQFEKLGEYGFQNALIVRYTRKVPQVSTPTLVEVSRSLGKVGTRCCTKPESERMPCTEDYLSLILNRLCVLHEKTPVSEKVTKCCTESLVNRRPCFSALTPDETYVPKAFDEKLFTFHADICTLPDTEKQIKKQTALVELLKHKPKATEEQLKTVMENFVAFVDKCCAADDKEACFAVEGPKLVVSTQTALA
Method in brief: as §1

[4] = test system: Bacillus subtilis ATCC 6633; test: Antimicrobial activity, MIC determination; assay type: cell-based; settings: B. subtilis; 24-h incubation, 37°C
Method in brief: (§2)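 Broth microdilution MIC in Mueller–Hinton broth, inoculum 0.5 McFarland, compounds added from DMSO working solutions at 2:98. After 24 h (37°C; X. campestris at 28°C), MIC is the lowest concentration inhibiting visible growth, by OD600 turbidity, in at least two of triplicate cultures.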

[5] = test system: Staphylococcus aureus ATCC 6538; test: Antimicrobial activity, MIC determination; assay type: cell-based; settings: S. aureus; 24-h incubation, 37°C
[6] = test system: Xanthomonas campestris ATCC 1395; test: Antimicrobial activity, MIC determination; assay type: cell-based; settings: X. campestris; 24-h incubation, 28°C
Method in brief: as §2

| SMILES | Epa(f), anodic potential [1] | Epc(f), cathodic potential [1] | Epa(b), anodic potential [1] | Epc(b), cathodic potential [1] | Kr/Kox, ratio of equilibrium DNA-binding constants (reduced/oxidized form) [1] | K(HSA), HSA-binding constant [2] | kq(HSA), HSA-quenching constant [2] | HSA fluorescence, % of the initial fluorescence intensity (I/Io) [2] | K(BSA), BSA-binding constant [3] | kq(BSA), BSA-quenching constant [3] | BSA fluorescence, % of the initial fluorescence intensity (I/Io) [3] | MIC [4] | MIC (values in parentheses) [4] | MIC [5] | MIC (values in parentheses) [5] | MIC [6] | MIC (values in parentheses) [6] |
| --- | --- | --- | --- | --- | --- | --- | --- | --- | --- | --- | --- | --- | --- | --- | --- | --- | --- |
| CN1CCN(c2c(F)cc3c(=O)c(C(=O)[O-])cn(CCF)c3c2F)CC1.CN1CCN(c2c(F)cc3c(=O)c(C(=O)[O-])cn(CCF)c3c2F)CC1.[Co+2].c1cnc2c(c1)ccc1cccnc12 [complex 17, [Co(flrx)2(phen)]] | −523 mV | −695 mV | −518 mV | −689 mV | 1.10 | 5.18(±0.32) × 10^4 M^−1 | 6.49(±0.21) × 10^12 M^−1s^−1 | 44.5% | 1.44(±0.03) × 10^5 M^−1 | 1.50(±0.03) × 10^13 M^−1s^−1 | 26.3% | 8 µg/mL | 8.0 µM | 8 µg/mL | 8.0 µM | 16 µg/mL | 16.0 µM |
| CN1CCN(c2c(F)cc3c(=O)c(C(=O)[O-])cn(CCF)c3c2F)CC1.CN1CCN(c2c(F)cc3c(=O)c(C(=O)[O-])cn(CCF)c3c2F)CC1.[Ni+2].c1ccc(Nc2ccccn2)nc1 [complex 18, [Ni(flrx)2(bipyam)]] | −523 mV | −695 mV | −512 mV | −689 mV | 1.15 | 7.13(±0.17) × 10^4 M^−1 | 6.94(±0.10) × 10^12 M^−1s^−1 | 44.5% | 4.77(±0.15) × 10^4 M^−1 | 1.56(±0.07) × 10^13 M^−1s^−1 | 25.2% | 8 µg/mL | 8.3 µM | 8 µg/mL | 8.3 µM | 32 µg/mL | 33.0 µM |
| CN1CCN(c2c(F)cc3c(=O)c(C(=O)[O-])cn(CCF)c3c2F)CC1.CN1CCN(c2c(F)cc3c(=O)c(C(=O)[O-])cn(CCF)c3c2F)CC1.[Ni+2].c1cnc2c(c1)ccc1cccnc12 [complex 19, [Ni(flrx)2(phen)]] | −489 mV | −706 mV | −460 mV | −718 mV | 1.15 | 6.65(±0.15) × 10^4 M^−1 | 6.67(±0.18) × 10^12 M^−1s^−1 | 43.9% | 8.01(±0.28) × 10^4 M^−1 | 1.39(±0.04) × 10^13 M^−1s^−1 | 25.6% | 8 µg/mL | 8.2 µM | 8 µg/mL | 8.2 µM | 16 µg/mL | 16.4 µM |
